Measured values: ChEMBL document CHEMBL5104089, “An update into the medicinal chemistry of translocator protein (TSPO) ligands” (Eur J Med Chem, 2021)

Experiments:
[1] = Displacement of [3H]flunitrazepam from CBR receptor in rat brain cerebral cortex by liquid scintillation spectrometer method; type: tissue-based
[2] = Binding affinity to CBR (unknown origin); set-up: species or system Homo sapiens
[3] = Lipophilicity, logD of the compound in 1-octanol and phosphate buffer in pH 7.4 incubated for 3 mins; type: physicochemical; conditions: 1-octanol/phosphate buffer
[4] = target: T1, Translocator protein (Rattus norvegicus, UniProt P16257); experiment: Displacement of [3H]-PK11195 from TSPO receptor in rat heart microsomes incubated for 15 mins by scintillation method; set-up: species or system Microsome
[5] = target: T1, Translocator protein; experiment: Displacement of [3H]-Ro54864 from TSPO receptor in rat heart microsomes incubated for 45 mins by scintillation method; set-up: species or system Microsome
[6] = Displacement of [3H]-Ro51788 from CBR receptor in rat brain microsomes incubated for 60 mins by scintillation method; set-up: species or system Microsome
[7] = target: T2, Translocator protein (Homo sapiens, UniProt P30536); experiment: Displacement of [3H]-PK11195 from TSPO receptor in human Leucocyte incubated for 30 mins by beta-counter analysis; type: cell-based
[8] = Lipophilicity, logD of the compound in 1-octanol and phosphate buffer in pH 7.4 incubated for 3 mins by shake flask method; type: physicochemical; conditions: 1-octanol/phosphate buffer
[9] = target: T1, Translocator protein; experiment: Displacement of [3H]-PK11195 from TSPO receptor in Sprague-Dawley rat brain incubated for 30 mins by […] analysis; type: tissue-based
[10] = target: T2, Translocator protein; experiment: Inhibition of TSPO (unknown origin) in mouse MA-10 cells assessed as increase in steroid steroidogenesis
[11] = Selectivity ratio of Ki for CBR (unknown origin) to Ki for TSPO receptor in Wistar rat brain
[12] = target: T1, Translocator protein; experiment: Displacement of [3H]-flunitrazepam from TSPO receptor in Wistar rat brain without cerebellum incubated for 90 mins by liquid scintillation counter analysis; type: tissue-based
[13] = Stability of the compound in human serum assessed as intact compound level measured after 24 hrs by iTLC-SG analysis; type: ADME, cell-free; conditions: read-out: Stability
[14] = Stability of the compound assessed as intact compound level measured after 24 hrs by iTLC-SG analysis; type: physicochemical; conditions: read-out: Stability
[15] = target: T2, Translocator protein; experiment: Inhibition of TSPO receptor (unknown origin)
[16] = target: T2, Translocator protein; experiment: Binding affinity to TSPO (unknown origin) relative to control; conditions: tested as the 11C-labelled form
[17] = Lipophilicity, logD of the compound; type: physicochemical; conditions: octanol/water
[18] = target: T1, Translocator protein; experiment: Binding affinity to TSPO in Sprague-Dawley rat brain; type: tissue-based

T1 sequence (P16257 whole entry, looked up): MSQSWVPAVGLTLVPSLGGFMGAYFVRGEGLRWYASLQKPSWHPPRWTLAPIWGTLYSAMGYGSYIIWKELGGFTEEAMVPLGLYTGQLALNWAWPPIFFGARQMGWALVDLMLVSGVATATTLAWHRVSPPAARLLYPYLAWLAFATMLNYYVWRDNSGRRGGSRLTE
T2 sequence (P30536 whole entry): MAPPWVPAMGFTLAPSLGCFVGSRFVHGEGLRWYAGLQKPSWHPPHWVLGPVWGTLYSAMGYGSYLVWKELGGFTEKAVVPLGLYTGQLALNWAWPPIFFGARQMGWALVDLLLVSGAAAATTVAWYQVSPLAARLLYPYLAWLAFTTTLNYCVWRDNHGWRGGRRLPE

SMILES: CC(=O)N(Cc1ccccc1OC(C)C)c1ccc(Cl)cc1Oc1ccccc1
- IC50 [1]: > 1000 nM

SMILES: CN1C(=O)CN=C(c2ccccc2F)c2cc([N+](=O)[O-])ccc21 [FLUNITRAZEPAM]
- Ki [2]: 5.11 nM

SMILES: CC(=O)N(Cc1ccccc1OC[18F])c1cnccc1Oc1ccccc1
- logD at 0.05 h [3]: 2.85

SMILES: CCN(CC)C(=O)Cn1c(=O)n2cc(-c3ccccc3)nc2c2ccccc21
- IC50 [4]: 400 nM
- IC50 [5]: 80 nM
- IC50 [6]: > 10000 nM

SMILES: CC(=O)N(Cc1ccccc1O[11CH3])c1cnccc1Oc1ccccc1
- IC50 [7]: 8.07 nM
- logD at 0.05 h [3]: 2.82

SMILES: CN(C(=O)Cn1c(=O)oc2ccc(-c3ccc(OCC[18F])cc3)cc21)c1ccccc1
- logD at 0.05 h [8]: 3.43
- Ki [9]: 6.6 nM

SMILES: CCC(C)N(C)C(=O)c1cc2ccccc2c(-c2ccccc2Cl)n1 (configuration not stated) [PK-11195]
- Ki [2]: > 100000 nM

SMILES: CCCN(CCC)C(=O)Cc1c(-c2ccc(OCC(=O)O)cc2)nc2c(Cl)cc(Cl)cn12
- EC50 [10]: 39000 nM

SMILES: Oc1nc2ccccc2c2nc(-c3ccccc3)nn12
- IC50 [4]: 9800 nM
- IC50 [5]: 15 nM

SMILES: CCCN(CCC)C(=O)Cc1c(-c2ccc(Cl)cc2)nc2c(NCC(=O)O)cccn12
- EC50 [10]: 21200 nM

SMILES: CCCN(CCC)C(=O)Cc1c(-c2ccc(Cl)cc2)nc2ccc(Cl)cn12 [ALPIDEM]
- Ratio Ki [11]: 3.29
- Ki [2]: 1 nM
- Ki [12]: 7.9 nM

SMILES: COC(=O)C(Cc1c[nH]c2ccccc12)NC(=O)Cn1c(=O)oc2ccc(Br)cc21 (configuration not stated)
- remaining at 24 h [13]: > 91%
- remaining at 24 h [14]: > 94%

SMILES: CCCN(CCC)C(=O)Cc1c(-c2ccc(O)cc2)nc2ccc(Cl)cn12
- EC50 [10]: 6990 nM
- Ratio Ki [11]: 21.1
- Ki [2]: 1.05 nM
- Ki [12]: 22.2 nM

SMILES: CCN(CC)C(=O)Cn1c(=O)n2c(C)c(-c3ccccc3)nc2c2ccccc21
- IC50 [4]: 29 nM
- IC50 [5]: 9 nM
- IC50 [6]: > 10000 nM

SMILES: CCCN(CCC)C(=O)Cc1c(-c2ccc(OC)cc2)nc2ccc(Cl)cn12
- EC50 [10]: 15900 nM
- Ratio Ki [11]: 210
- Ki [2]: 105 nM
- Ki [12]: 0.5 nM

SMILES: COc1ccc(OC)c(CN(C(C)=O)c2cc(F)ccc2Oc2ccccc2)c1
- IC50 [15]: 0.28 nM
- IC50 [1]: > 1000 nM
- Activity [16]: 80%

SMILES: COc1ccc(-c2ccc3oc(=O)n(CC(=O)N(C)c4ccccc4)c3c2)cc1
- logD [17]: 3.5

SMILES: CCN(CC)C(=O)Cn1c(=O)n2nc(-c3ccccc3)nc2c2ccccc21
- IC50 [4]: 1700 nM

SMILES: CCCN(CCC)C(=O)Cc1c(-c2ccc(Cl)cc2)nc2c(Cl)cc(Cl)cn12 [ALPDEM]
- EC50 [10]: 337 nM

SMILES: CN(C(=O)Cn1c(=O)oc2ccc(-c3cccc([N+](=O)[O-])c3)cc21)c1ccccc1O[11CH3]
- logD [17]: 2.08
- Ki [18]: 4.9 nM

SMILES: CCCN(CCC)C(=O)Cc1c(-c2ccc(OC)cc2)nc2c(Cl)cc(Cl)cn12
- EC50 [10]: 571 nM

SMILES: CCCN(CCC)C(=O)Cn1c(=O)n2cc(-c3ccccc3)nc2c2ccccc21
- IC50 [4]: 11 nM
- IC50 [5]: 12 nM
- IC50 [6]: > 10000 nM

SMILES: CC(=O)N(C)c1ccccc1Oc1ccccc1
- IC50 [15]: 6.7 nM

SMILES: CCN(CC)C(=O)Cn1c(=O)n2cc(-c3ccc(OC)c(OC)c3)nc2c2ccccc21
- IC50 [4]: 150 nM
- IC50 [5]: 500 nM
- IC50 [6]: > 10000 nM
